Our source for the Kd values is PMC3934850 (Biochimica et biophysica acta, 2014).

The target in this assay is myoglobin (carbonmonoxy myoglobin, MbCO) (Equus caballus, UniProt P68082). Kind of assay: 1H NMR titration. The format is binding.

SMILES strings stand for the structures.

Chain of myoglobin (carbonmonoxy myoglobin, MbCO) (P68082 2-154): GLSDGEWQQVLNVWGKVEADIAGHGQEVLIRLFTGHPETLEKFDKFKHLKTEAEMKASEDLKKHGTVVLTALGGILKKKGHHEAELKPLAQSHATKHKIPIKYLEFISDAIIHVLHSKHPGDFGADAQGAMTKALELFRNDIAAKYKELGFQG

With `CCCCCCCCCCCCCCCC(=O)O` [PA, palmitate], the Kd is 39 to 48 µM.

What is called Kd is a measure of binding affinity in units of concentration. The low end stands for a tighter complex, the high end for a looser complex.
